Experiments:
Experiment in all cases: In vitro antibacterial evaluation: minimum inhibitory concentration (MIC), broth dilution method
Assay type in all cases: cell-based
Escherichia coli [1] = system: Escherichia coli
Staphylococcus sp. = settings: 18 hours at 35° C.
Summary of the method: (§1)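 Broth dilution per NCCLS M7-A2 in Muller-Hinton II […], inoculum 5×10^5 CFU/mL, antibiotic tested over 64-0.06 μg/mL. MIC is taken as the lowest concentration that inhibits growth. Panel includes recent clinical isolates resistant to methicillin, penicillin and/or vancomycin.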

Streptococcus sp. = settings: 18 hours at 35° C.
Summary of the method: as §1

Enterococcus sp. = system: Enterococcus sp.
Summary of the method: as §1

Escherichia coli [2] = system: Escherichia coli; remark: listed apart in the source
Summary of the method: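 Susceptibility determined by NCCLS-recommended broth dilution (M7-A2), Muller-Hinton II […]. Concentration span 64-0.06 μg/mL, inoculum 5×10^5 CFU/mL. Isolates include strains resistant to methicillin, penicillin and/or vancomycin.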

[3] = Staphylococcus aureus (ATCC 29213)
[4] = Staphylococcus aureus (GC 1131)
[5] = Staphylococcus aureus (GC 3051)
[6] = Staphylococcus aureus (GC 3053)
[7] = Staphylococcus aureus (GC 4541)
[8] = Staphylococcus aureus (GC 4542)
[9] = Staphylococcus aureus (GC 4544)
[10] = Staphylococcus aureus (GC 4545)
[11] = broth dilution, strain ATCC 6301
[12] = Enterococcus faecalis (ATCC 29212)
[13] = Enterococcus faecalis (GC 4553)
[14] = Enterococcus faecalis (GC 4554)
[15] = Enterococcus faecalis (GC 6189)
[16] = broth dilution, 18 hours at 35° C., strain ATCC 29212
[17] = broth dilution, 18 hours at 35° C., strain GC 2242
[18] = broth dilution, 18 hours at 35° C., strain GC 2243
[19] = broth dilution, 18 hours at 35° C., strain GC 2691
[20] = broth dilution, 18 hours at 35° C., strain GC 3059
[21] = broth dilution, 18 hours at 35° C., strain GC 4552
[22] = broth dilution, 18 hours at 35° C., strain GC 4553
[23] = broth dilution, 18 hours at 35° C., strain GC 4554
[24] = broth dilution, 18 hours at 35° C., strain GC 4556
[25] = broth dilution, 18 hours at 35° C., strain GC 4557
[26] = broth dilution, 18 hours at 35° C., strain GC 4558
[27] = broth dilution, 18 hours at 35° C., strain GC 6189

α-O-[(Benzylamino)carbonyl]-cyclo[glycyl-β-methylphenylalanyl-O-(4-O-hexopyranosylhexopyranosyl)tyrosyl-3-(2-iminoimidazolidin-4-yl)seryl-3-(3-hexopyranosyl-2-iminoimidazolidin-4-yl)serylseryl] [Example 257a]
0.5 µg/mL: MIC Staphylococcus aureus (ATCC 29213) (Staphylococcus sp.; [3]) | MIC Staphylococcus aureus (GC 1131) (Staphylococcus sp.; [4]) | MIC Staphylococcus aureus (GC 3051) (Staphylococcus sp.; [5]) | MIC Staphylococcus aureus (GC 3053) (Staphylococcus sp.; [6]) | MIC Staphylococcus aureus (GC 4541) (Staphylococcus sp.; [7]) | MIC Staphylococcus aureus (GC 4542) (Staphylococcus sp.; [8]) | MIC Staphylococcus aureus (GC 4544) (Staphylococcus sp.; [9]) | MIC Staphylococcus aureus (GC 4545) (Staphylococcus sp.; [10]) | MIC Staphylococcus aureus-SMITH (GC 4543) (Staphylococcus sp.) | MIC Staphylococcus aureus (ATCC 29213) (Staphylococcus sp.; broth dilution, strain ATCC 29213) | MIC Staphylococcus aureus (GC 1131) (Staphylococcus sp.; broth dilution, strain GC 1131) | MIC Staphylococcus aureus (GC 3051) (Staphylococcus sp.; broth dilution, strain GC 3051) | MIC Staphylococcus aureus (GC 3053) (Staphylococcus sp.; broth dilution, strain GC 3053) | MIC Staphylococcus aureus (GC 4541) (Staphylococcus sp.; broth dilution, strain GC 4541) | MIC Staphylococcus aureus (GC 4542) (Staphylococcus sp.; broth dilution, strain GC 4542) | MIC Staphylococcus aureus (GC 4544) (Staphylococcus sp.; broth dilution, strain GC 4544) | MIC Staphylococcus aureus (GC 4545) (Staphylococcus sp.; broth dilution, strain GC 4545) | MIC Enterococcus faecalis (GC 2691) (Enterococcus sp.; Enterococcus faecalis (GC 2691), 18 hours at 35° C.) | MIC Enterococcus faecalis (GC 2691) (Enterococcus sp.; [19]) | MIC Escherichia coli (GC 4560) (Escherichia coli [2])
4 µg/mL: MIC Coagulase Negative Staphylococcus (GC 6257) (Staphylococcus sp.) | MIC Streptococcus pneumoniae (GC 4565) (Streptococcus sp.; Streptococcus pneumoniae (GC 4565)) | MIC Streptococcus pneumoniae (GC 4565) (Streptococcus sp.; broth dilution, strain GC 4565)
32 µg/mL: MIC Coagulase Negative Staphylococcus (GC 4551) (Staphylococcus sp.)
0.12 µg/mL: MIC Streptococcus pyogenes (GC 4563) (Streptococcus sp.; Streptococcus pyogenes (GC 4563)) | MIC Streptococcus pyogenes (GC 4563) (Streptococcus sp.; broth dilution, strain GC 4563)
>0.5 µg/mL: MIC Escherichia coli (ATCC 25922) (Escherichia coli [1]) | MIC Enterococcus avium (GC 4558) (Enterococcus sp.; Enterococcus avium (GC 4558)) | MIC Enterococcus faecalis (ATCC 29212) (Enterococcus sp.; [12]) | MIC Enterococcus faecalis (GC 2242) (Enterococcus sp.; Enterococcus faecalis (GC 2242), 18 hours at 35° C.) | MIC Enterococcus faecalis (GC 3059) (Enterococcus sp.; Enterococcus faecalis (GC 3059), 18 hours at 35° C.) | MIC Enterococcus faecalis (GC 4552) (Enterococcus sp.; Enterococcus faecalis (GC 4552), 18 hours at 35° C.) | MIC Enterococcus faecalis (GC 4553) (Enterococcus sp.; [13]) | MIC Enterococcus faecalis (GC 4554) (Enterococcus sp.; [14]) | MIC Enterococcus faecalis (GC 6189) (Enterococcus sp.; [15]) | MIC Enterococcus faecalis (ATCC 29212) (Enterococcus sp.; [16]) | MIC Enterococcus faecalis (GC 2242) (Enterococcus sp.; [17]) | MIC Enterococcus faecalis (GC 3059) (Enterococcus sp.; [20]) | MIC Enterococcus faecalis (GC 4552) (Enterococcus sp.; [21]) | MIC Enterococcus faecalis (GC 4553) (Enterococcus sp.; [22]) | MIC Enterococcus faecalis (GC 4554) (Enterococcus sp.; [23]) | MIC Enterococcus avium (GC 4558) (Enterococcus sp.; [26]) | MIC Enterococcus faecalis (GC 6189) (Enterococcus sp.; [27]) | MIC Escherichia coli (GC 4559) (Escherichia coli [2])
>32 µg/mL: MIC Enterococcus faecium (GC 2243) (Enterococcus sp.; Enterococcus faecium (GC 2243)) | MIC Enterococcus faecium (GC 4556) (Enterococcus sp.; Enterococcus faecium (GC 4556)) | MIC Enterococcus faecium (GC 2243) (Enterococcus sp.; [18]) | MIC Enterococcus faecium (GC 4556) (Enterococcus sp.; [24])
8 µg/mL: MIC Coagulase Negative Staphylococcus (GC 4547) (Staphylococcus sp.) | MIC Coagulase Negative Staphylococcus (GC 4548) (Staphylococcus sp.) | MIC Coagulase Negative Staphylococcus (GC 4549) (Staphylococcus sp.) | MIC Staphylococcus haemolyticus (GC 4546) (Staphylococcus sp.) | MIC Streptococcus agalactiae (GC 4564) (Streptococcus sp.; Streptococcus agalactiae (GC 4564)) | MIC Streptococcus agalactiae (GC 4564) (Streptococcus sp.; broth dilution, strain GC 4564) | MIC Enterococcus faecium (GC 4557) (Enterococcus sp.; Enterococcus faecium (GC 4557)) | MIC Enterococcus faecium (GC 4557) (Enterococcus sp.; [25])
1 µg/mL: MIC Streptococcus pneumoniae (ATCC 6301) (Streptococcus sp.; Streptococcus pneumoniae (ATCC 6301)) | MIC Streptococcus pneumoniae (GC 1894) (Streptococcus sp.; Streptococcus pneumoniae (GC 1894)) | MIC Streptococcus pneumoniae (ATCC 6301) (Streptococcus sp.; [11]) | MIC Streptococcus pneumoniae (GC 1894) (Streptococcus sp.; broth dilution, strain GC 1894)

CC(c1ccccc1)C1NC(=O)CNC(=O)C(CO)NC(=O)C(C(O)C2CNC(=N)N2C2OC(CO)C(O)C(O)C2O)NC(=O)C(C(O)C2CNC(=N)N2)NC(=O)C(Cc2ccc(OC3OC(CO)C(OC4OC(CO)C(O)C(O)C4O)C(O)C3O)cc2N)NC1=O (stereo not drawn) [Example 287, Cyclo[glycyl-β-methylphenylalanyl-2-amino-O-(4-O-hexopyranosylhexopyranosyl)tyrosyl-3-(2-iminoimidazolidin-4-yl)seryl-3-(3-hexopyranosyl-2-iminoimidazolidin-4-yl)serylseryl]]
64 µg/mL: MIC Streptococcus pneumoniae (ATCC 6301) (Streptococcus sp.; [11]) | MIC Streptococcus pneumoniae (GC 1894) (Streptococcus sp.; broth dilution, strain GC 1894) | MIC Streptococcus pneumoniae (GC 4565) (Streptococcus sp.; broth dilution, strain GC 4565) | MIC Enterococcus avium (GC 4558) (Enterococcus sp.; Enterococcus avium (GC 4558)) | MIC Enterococcus faecium (GC 4557) (Enterococcus sp.; Enterococcus faecium (GC 4557)) | MIC Enterococcus faecium (GC 4557) (Enterococcus sp.; [25]) | MIC Enterococcus avium (GC 4558) (Enterococcus sp.; [26])
>64 µg/mL: MIC Escherichia coli (ATCC 25922) (Escherichia coli [1]) | MIC Coagulase Negative Staphylococcus (GC 4547) (Staphylococcus sp.) | MIC Coagulase Negative Staphylococcus (GC 4547) (Staphylococcus sp.; broth dilution) | MIC Coagulase Negative Staphylococcus (GC 4548) (Staphylococcus sp.) | MIC Coagulase Negative Staphylococcus (GC 4548) (Staphylococcus sp.; broth dilution) | MIC Coagulase Negative Staphylococcus (GC 4549) (Staphylococcus sp.) | MIC Coagulase Negative Staphylococcus (GC 4549) (Staphylococcus sp.; broth dilution) | MIC Coagulase Negative Staphylococcus (GC 4551) (Staphylococcus sp.) | MIC Coagulase Negative Staphylococcus (GC 4551) (Staphylococcus sp.; broth dilution) | MIC Coagulase Negative Staphylococcus (GC 6257) (Staphylococcus sp.) | MIC Coagulase Negative Staphylococcus (GC 6257) (Staphylococcus sp.; broth dilution) | MIC Staphylococcus aureus (ATCC 29213) (Staphylococcus sp.; [3]) | MIC Staphylococcus aureus (ATCC 29213) (Staphylococcus sp.; Staphylococcus aureus (ATCC 29213), broth dilution) | MIC Staphylococcus aureus (GC 1131) (Staphylococcus sp.; [4]) | MIC Staphylococcus aureus (GC 1131) (Staphylococcus sp.; Staphylococcus aureus (GC 1131), broth dilution) | MIC Staphylococcus aureus (GC 3051) (Staphylococcus sp.; [5]) | MIC Staphylococcus aureus (GC 3051) (Staphylococcus sp.; Staphylococcus aureus (GC 3051), broth dilution) | MIC Staphylococcus aureus (GC 3053) (Staphylococcus sp.; [6]) | MIC Staphylococcus aureus (GC 3053) (Staphylococcus sp.; Staphylococcus aureus (GC 3053), broth dilution) | MIC Staphylococcus aureus (GC 4541) (Staphylococcus sp.; [7]) | MIC Staphylococcus aureus (GC 4541) (Staphylococcus sp.; Staphylococcus aureus (GC 4541), broth dilution) | MIC Staphylococcus aureus (GC 4542) (Staphylococcus sp.; [8]) | MIC Staphylococcus aureus (GC 4542) (Staphylococcus sp.; Staphylococcus aureus (GC 4542), broth dilution) | MIC Staphylococcus aureus (GC 4544) (Staphylococcus sp.; [9]) | MIC Staphylococcus aureus (GC 4544) (Staphylococcus sp.; Staphylococcus aureus (GC 4544), broth dilution) | MIC Staphylococcus aureus (GC 4545) (Staphylococcus sp.; [10]) | MIC Staphylococcus aureus (GC 4545) (Staphylococcus sp.; Staphylococcus aureus (GC 4545), broth dilution) | MIC Staphylococcus aureus-SMITH (GC 4543) (Staphylococcus sp.) | MIC Staphylococcus aureus-SMITH (GC 4543) (Staphylococcus sp.; broth dilution) | MIC Staphylococcus haemolyticus (GC 4546) (Staphylococcus sp.) | MIC Staphylococcus haemolyticus (GC 4546) (Staphylococcus sp.; broth dilution) | MIC Streptococcus pyogenes (GC 4563) (Streptococcus sp.; broth dilution, strain GC 4563) | MIC Streptococcus agalactiae (GC 4564) (Streptococcus sp.; broth dilution, strain GC 4564) | MIC Enterococcus faecalis (ATCC 29212) (Enterococcus sp.; [12]) | MIC Enterococcus faecalis (GC 4553) (Enterococcus sp.; [13]) | MIC Enterococcus faecalis (GC 4554) (Enterococcus sp.; [14]) | MIC Enterococcus faecalis (GC 6189) (Enterococcus sp.; [15]) | MIC Enterococcus faecium (GC 2243) (Enterococcus sp.; Enterococcus faecium (GC 2243)) | MIC Enterococcus faecium (GC 4556) (Enterococcus sp.; Enterococcus faecium (GC 4556)) | MIC Enterococcus faecalis (ATCC 29212) (Enterococcus sp.; [16]) | MIC Enterococcus faecalis (GC 2242) (Enterococcus sp.; [17]) | MIC Enterococcus faecium (GC 2243) (Enterococcus sp.; [18]) | MIC Enterococcus faecalis (GC 2691) (Enterococcus sp.; [19]) | MIC Enterococcus faecalis (GC 3059) (Enterococcus sp.; [20]) | MIC Enterococcus faecalis (GC 4552) (Enterococcus sp.; [21]) | MIC Enterococcus faecalis (GC 4553) (Enterococcus sp.; [22]) | MIC Enterococcus faecalis (GC 4554) (Enterococcus sp.; [23]) | MIC Enterococcus faecium (GC 4556) (Enterococcus sp.; [24]) | MIC Enterococcus faecalis (GC 6189) (Enterococcus sp.; [27]) | MIC Escherichia coli (GC 4559) (Escherichia coli [2]) | MIC Escherichia coli (GC 4560) (Escherichia coli [2])

Reference: patent US8247211B2, “Glycopeptide antibiotics” (American Cyanamid Company, priority 2001, dated 2012)
